Data on 7 compounds can be found in US8299046B2, “Synthetic triterpenoids and tricyclic-bis-enones for use in stimulating bone and cartilage growth” (Trustees of Dartmouth College, priority 2006, dated 2012).

Assay [1] has as its system MCF-7 breast cancer cell lines. To be noted: Honda et al., 2003; cited from earlier work.
Assay [2] deals with neonatal murine calvarial bones. The experiment in a line: Neonatal murine calvarial bone formation assay. Format: cell-based, ICR Swiss mice. To be noted: for alkaline phosphatase in the calvarial culture media: 4 and 7 days (FIGS. 2, 5, 8, 11); for cartilage formation: calvarial cultures, 7 days (FIGS. 3, 6, 9, 12); for new bone formation: calvarial organ culture, 7 days, 40, 200, 1000 nM (FIGS. 1, 4, 10). As for the experimental part: Neonatal murine calvarial bone formation assay. The technique for studying organ cultures of neonatal murine calvarial bones has been described in detail previously (Traianedes et al., 1999, Mundy et al., 1999). The bones were removed from the calvaria of 4-5 day old ICR Swiss mice, and then cultured in BGJ medium with 0.1% BSA for 7 Days using 4 calvarial bones per group triterpenoids in differing amounts were added for 7 days. Alkaline phosphatase was determined at 4 and 7 days and expressed as arbitrary units of alkaline phosphatase activity. At the end of the experiment the media was saved and assayed for the presence of alkaline phosphatase and the calvaria bones were then fixed overnight in 10% formalin, decalcified in 14% EDTA overnight and were then embedded in paraffin wax. Sections were cut, using a standard microtome, along the midline suture to reveal the sagittal suture and the region posterior to this suture. Four micrometer sections were taken initially and at two sequential […] depths. Sections were placed on coated glass slides (Superfrost plus, Fisher Scientific, Pittsburgh, Pa.) and stained with hematoxylin and eosin. The effects on bone formation were evaluated by morphologic assessment.
Imaging. Digital images across sections of the neonatal murine calvaria were taken from each group. Histomorphometric analysis was performed on these calvarial images using the Osteomeasure System (Osteometrics Inc., Atlanta, Ga.). The total and new bone area (expressed as mm^2×10^−3) was determined on all images across the calvarial section.

The test system of assay [3] is heme oxygenase-1. To be noted: Liby et al., 2005; cited from earlier work.
For assay [4], the system named is SZP synthesis in superficial zone articular chondrocytes. Description: Bovine calf stifle joint SZP assay. Format: cell-based. To be noted: for SZP synthesis at lower concentrations: 0.01 to 1 nM; for SZP synthesis at higher concentrations / SZP synthesis at higher concentrations with concurrent TGF-β1: 100-1000 nM; for SZP synthesis at higher concentrations: Day 3 culture media; for SZP synthesis at higher concentrations with concurrent TGF-β1: concurrent TGF-β1 (4 pM). As for the experimental part:
Bovine calf stifle joint SZP assay. Bovine calf stifle joints were dissected under aseptic conditions. The superficial zone of articular cartilage of femoral condyles (approximately 100 μm thickness) was harvested using a dermatome. The cartilage slices were digested with 0.2% collagenase P in culture medium. Isolated chondrocytes were plated in monolayer at a density of 1×10^5 cells/well (approximately 2.5×10^4 cells/cm^2) in 12-well culture plates and incubated at 37° C. in a moist atmosphere of 5% carbon dioxide and 95% air. Chondrocytes were cultured in D-MEM/F-12 containing 10% fetal bovine serum over night, and then the media were changed in serum-free D-MEM/F-12 supplemented with ITSL (insulin, transferrin, selenious acid, and linoleic acid). Both media contain 100 U/ml penicillin, 100 μg/ml streptomycin, 50 μg/ml ascorbate-2-phosphate, and 0.1% bovine serum albumin. After changing the media with serum into the serum-free chemically defined media, various concentration of synthetic triterpenoids were added into the cell culture. As most of SZP is secreted into the culture medium, supernatants were harvested as samples and the SZP synthesis was analyzed by SDS-PAGE and Western blotting using a monoclonal antibody S6.79, obtained from Rush Medical College, Chicago, Ill. SZP accumulation into the culture medium was also quantified by ELISA using purified SZP as standard. The accumulation of SZP into the culture media increased in a time-dependent manner (Day 1<Day 2<Day 3). Therefore the culture of media of Day 3 was used for all the studies.

Assay [5] deals with RMPI 8226 human myeloma cells. Description: Proliferation of RMPI 8226 myeloma cells. Format: cell-based.
Assay [6] relates to heme oxygenase-1 in U937 cells. Description: Heme oxygenase-1 induction in U937 cells. Format: cell-based, human.
Assay [7] has as its system U937 human leukemia cells. Description: Proliferation of U937 leukemia cells. Format: cell-based.
Assay [8] relates to RAW cells. The experiment in a line: Inhibition of NO production in RAW cells. Format: cell-based.
In assay [9] the test system is iNOS in RAW cells. Description: iNOS in RAW cells stimulated with interferon-γ. Type of assay: cell-based.
Assay [10] has as its system CD11b expression in U937 cells. Description: CD11b expression in U937 cells. Format: cell-based, human.
For assay [11], the system named is heme oxygenase-1. The experiment in a line: In vivo assay of heme oxygenase-1 induction.

Regarding `CC1(C)C(=O)C(C#N)=C[C@]2(C)C3=CC(=O)C(C#N)=C[C@]3(C)CC[C@@H]12` [(−)-TBE-9], in [1], the “activity against MCF-7 cell lines” value is reported as “active”.
As for `CC1(C)CC[C@]2(C(=O)n3ccnc3)CC[C@]3(C)[C@H](C(=O)C=C4[C@@]5(C)C=C(C#N)C(=O)C(C)(C)[C@@H]5CC[C@]43C)[C@@H]2C1` [TP-235], in assay [2], the “alkaline phosphatase in the calvarial culture media” value (“alkaline phosphatase” below) was “no convincing change” and the cartilage formation result is “No evidence of cartilage formation”. In addition, the “new bone formation at 40 nM” value in assay [2] (at 40 nM, 7 days (FIG. 7)) is on record as “Significant increase”. Also, the “potency in heme oxygenase-1 induction assay (literature)” value in [3] is “highest potency amongst semi-synthetic triterpenoids”. Besides, in assay [4], the “SZP synthesis at lower concentrations” value was “no obvious effects”, the “SZP synthesis at higher concentrations” value was “down-regulated SZP synthesis in a dose-dependent manner” and the “SZP synthesis at higher concentrations with concurrent TGF-β1” value (from here on “SZP synthesis … with concurrent TGF-β1”) is on record as “the same trend”.
As for `COC(=O)[C@]12CCC(C)(C)C[C@H]1[C@H]1C(=O)C=C3[C@@]4(C)C=C(C#N)C(=O)C(C)(C)[C@@H]4CC[C@@]3(C)[C@]1(C)CC2` [TP-155], in assay [2], the “alkaline phosphatase” value is listed as “increases”, the cartilage formation result is on record as “Some evidence of cartilage formation was seen in these cultures (FIG. 3) however this was not significant” and the new bone formation entry is listed as “Significant increase”. In addition, in assay [4], the “SZP synthesis at lower concentrations” value was “up-regulated SZP synthesis”, the “SZP synthesis at higher concentrations” value is “down-regulated SZP synthesis in a dose-dependent manner” and the “SZP synthesis … with concurrent TGF-β1” value is on record as “the same trend”.
For TGF-β1: Recombinant human TGF-β1, the “SZP synthesis (TGF-β1)” value in assay [4] (0.4-120 pM) was “up-regulate SZP synthesis in a dose-dependent manner”.
Regarding `CC1(C)CC[C@]2(C(=O)O)CC[C@]3(C)[C@H](C(=O)C=C4[C@@]5(C)C=C(C#N)C(=O)C(C)(C)[C@@H]5CC[C@]43C)[C@@H]2C1` [TP-151, 2-cyano-3,12-dioxooleane-1,9(11)-dien-28-oic acid], in assay [2], the “alkaline phosphatase” value is given as “increases”, the cartilage formation entry was “No evidence of cartilage formation” and the new bone formation entry was “Significant increase”. In assay [4], the “SZP synthesis at lower concentrations” value was “up-regulated SZP synthesis”, the “SZP synthesis at higher concentrations” value was “down-regulated SZP synthesis in a dose-dependent manner” and the “SZP synthesis … with concurrent TGF-β1” value is listed as “the same trend”.
On to `CCNC(=O)[C@]12CCC(C)(C)C[C@H]1[C@H]1C(=O)C=C3[C@@]4(C)C=C(C#N)C(=O)C(C)(C)[C@@H]4CC[C@@]3(C)[C@]1(C)CC2` [TP-319], for which, in assay [2], the “alkaline phosphatase” value is listed as “dose responsive increases”, the cartilage formation result is “clear evidence increases in cartilage formation” and the new bone formation result is “Some increases”. In assay [4], the “SZP synthesis at lower concentrations” value is reported as “no obvious effects”, the “SZP synthesis at higher concentrations” value is “down-regulated SZP synthesis in a dose-dependent manner” and the “SZP synthesis … with concurrent TGF-β1” value is recorded as “the same trend”.
With `CC1(C)C(=O)C(C#N)=CC2(C)C3=CC(=O)C(C#N)=C(C#C[Si](C)(C)C)C3CCC12` (racemic) [TBE-31], in [5], the “proliferation of RMPI 8226 human myeloma cells” value was “inhibits proliferation”. For the same compound, in [6], the “induction of heme oxygenase-1 in U937 cells” value is reported as “potent inducer”. For the same compound, the “proliferation of U937 human leukemia cells” value in assay [7] was “inhibits proliferation”. Further, the “potency for inhibition of NO production in RAW cells” value in [8] is on record as “extremely potent at one nanomolar concentrations”. In addition, the “potency for NO inhibition in RAW cells compared with CDDO and TP-225” value in [8] (comparison) was “much higher than CDDO and equal to TP-225”. The “iNOS in RAW cells” value in assay [9] is “inhibits iNOS”. In addition, in [10], the “CD11b expression in U937 cells” value is reported as “induces CD11b expression”. In addition, in assay [10] (comparison), the “potency for CD11b induction compared with CDDO and CDDO-Im” value is “much higher than CDDO and CDDO-Im”. For the same compound, the “potency in heme oxygenase-1 induction compared with CDDO and CDDO-Im” value in assay [11] (comparison) is “much higher than CDDO and equal to CDDO-Im”. In assay [11] (oral), the “in vivo heme oxygenase-1 induction” value is on record as “orally active”.
